# Where “and” joins values, the source holds several entries; their conditions need not be identical. Identical values can stand only once. Like-named read-outs stand apart in the source and are kept apart here.
# Legend:
# β1-adrenoceptor = target: T1, β1-adrenoceptor (Rattus norvegicus, UniProt P18090); assay: Inhibition of isadrin's positive chronotropic effect, i.v., anesthetized rats; assay type: in vivo; conditions: rat, iv, read-out: Dosage inhibiting isadrin's positive chronotropism by 50% (ED50)
# T1 construct: positive chronotropic and depressor effects in the anesthetized rats; from tissue; host or cells: whole living rat (heart rate response to isadrin); endogenous receptor
# T1 sequence (P18090 whole entry): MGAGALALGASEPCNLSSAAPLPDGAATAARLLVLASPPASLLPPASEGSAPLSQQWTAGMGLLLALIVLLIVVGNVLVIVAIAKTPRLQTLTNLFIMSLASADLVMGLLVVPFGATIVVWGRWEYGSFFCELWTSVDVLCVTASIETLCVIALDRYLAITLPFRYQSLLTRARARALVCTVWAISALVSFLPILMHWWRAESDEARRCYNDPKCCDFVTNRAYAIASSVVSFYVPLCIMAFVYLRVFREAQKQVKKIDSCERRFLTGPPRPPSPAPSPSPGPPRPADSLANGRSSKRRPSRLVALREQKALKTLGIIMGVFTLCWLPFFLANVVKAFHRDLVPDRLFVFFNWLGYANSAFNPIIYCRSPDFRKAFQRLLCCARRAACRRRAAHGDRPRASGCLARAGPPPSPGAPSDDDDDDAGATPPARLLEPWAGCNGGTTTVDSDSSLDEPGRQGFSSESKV
# β2-adrenoceptor = target: T2, β2-adrenoceptor (Rattus norvegicus, UniProt P10608); assay: Inhibition of isadrin's depressor effect, i.v., anesthetized rats; assay type: in vivo; conditions: rat, iv, read-out: Dosage inhibiting isadrin's depressor effect by 50%, ED50
# T2 construct: positive chronotropic and depressor effects in the anesthetized rats; from tissue; host or cells: whole living rat (blood pressure response to isadrin); endogenous receptor
# T2 sequence (P10608 whole entry): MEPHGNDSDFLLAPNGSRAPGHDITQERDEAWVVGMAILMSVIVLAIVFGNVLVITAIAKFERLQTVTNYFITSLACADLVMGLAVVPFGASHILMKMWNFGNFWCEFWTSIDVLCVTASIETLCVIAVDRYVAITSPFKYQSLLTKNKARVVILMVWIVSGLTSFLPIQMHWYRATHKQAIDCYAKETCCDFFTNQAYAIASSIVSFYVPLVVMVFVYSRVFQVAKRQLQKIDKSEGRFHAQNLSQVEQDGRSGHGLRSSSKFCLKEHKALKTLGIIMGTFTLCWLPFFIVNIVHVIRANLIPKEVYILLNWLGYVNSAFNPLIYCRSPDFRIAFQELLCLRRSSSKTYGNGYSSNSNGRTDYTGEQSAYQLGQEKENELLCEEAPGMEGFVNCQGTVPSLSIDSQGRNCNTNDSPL
# [1] = test system: mesaton-initiated pressor effect; assay: Mesaton-initiated pressor effect in anesthetized rats; assay type: in vivo, rat; conditions: for effect on mesaton pressor effect: 3 mg/kg i.v.; for suppression of mesaton pressor effect: 10 mg/kg i.v., average
# arterial pressure [2] = assay: Hypotensive activity in anesthetized cats, i.v.; assay type: in vivo, cat
# [3] = test system: electrically induced ventricular fibrillation; assay: Threshold of electrically induced ventricular fibrillation in anesthetized cats; assay type: in vivo, cat
# [4] = test system: strophantin-induced arrhythmia; assay type: in vivo, guinea pig
# coronary vessels = assay: Coronary vessel dilatation and myocardial perfusion in anesthetized rats; assay type: in vivo, rat; conditions: 0.1 mg/kg i.v. (compound of the invention)
# Text: The coronarodilative effect of the compound according to the invention is not associated with its β- and α-adrenoceptor blocking activity and its influence on the systemic perfusion pressure and pump function of the heart. […]
# vascular regions [5] = assay: Labeled microsphere method: cardiac output distribution in normotensive rats; assay type: in vivo, rat
# vascular regions [6] = assay: Labeled microsphere method in rats with renovascular hypertension; assay type: in vivo, rat
# in vivo = conditions: mouse, iv
# Text: LD50 values were estimated by using the Litchfield-Wilckoxon method.
# arterial pressure [7] = assay: Arterial pressure and heart rate in conscious normotensive rats, oral; assay type: in vivo, rat; conditions: 150 mg/kg
# arterial pressure [8] = assay: Antihypertensive effect in rats with renovascular hypertension; assay type: in vivo, rat; conditions: same conditions
# Method: . In rats suffering from renovascular hypertension the compound of the invention in the dosage of 10 mg/kg (injected intramuscularly) lowered with confidence the arterial pressure (from 137±3 to 117±5 mm of Hg column) 30 minutes after being administered. The 2-week course of the administration of the compound according to the invention (10 mg/kg 1 time a day) caused the antihypertensive effect to be enhanced. By the end of the second week the arterial pressure was 110±8.6 mm Hg. […]
# ventricular fibrillation = assay: Ventricular fibrillation during acute coronary occlusion and reperfusion in anesthetized dogs; assay type: in vivo, dog; conditions: for Ventricular fibrillation during acute occlusion and reperfusion: single animals
# [9] = test system: intraocular tension of intact rabbit eyes; conditions: 1% solution
# Method: The effects of the compound according to the invention on intraocular tension and hydrodynamics of the eye was tested in 28 chinchilla rabbits with body weight of 2.5-3.5 kg.
# The left animal eyes were control wherein using the same procedure a diluent was instilled.
# intraocular tension = assay: Clinical test in 108 patients with glaucoma resistant to conventional therapy; conditions: human, in vivo
# Method: The preparation of the invention was tested on 108 patients with different cases of glaucoma resistant to the conventional antiglaucomic therapy. […] A long-term resetting for more than 1 month of intraocular tension was attained in 76% of patients.
# [10] = β-adrenoceptor blocking doses, normotensive rats
structure (smiles),measurement,setting,value
"CC(CCc1ccccc1)NCC(O)c1ccc(O)c(C(N)=O)c1 (stereo not shown) [Labetalol, labetalol]",ED50,β1-adrenoceptor,0.7 ± 0.05 mg/kg
same,ED50,β2-adrenoceptor,3.3 ± 0.2 mg/kg
same,effect on mesaton pressor effect,[1],did not change
same,suppression of mesaton pressor effect,[1],47%
same,ED20,"arterial pressure [2]; Felis catus, iv, anesthetized cats, read-out: Dose resulting in lowering of arterial pressure by 20%, ED20",1 ± 0.09 mg/kg
same,minimal effective dose,"arterial pressure [2]; Felis catus, iv, cats, read-out: dosage from which arterial pressure lowered",0.1 mg/kg
same,hypotensive effect compared with compound of the invention,arterial pressure [2]; from 0.1 mg/kg,less pronounced and prolonged effect
same,threshold of electrically induced ventricular fibrillation,[3]; 1 mg/kg,did not change
same,threshold of electrically induced ventricular fibrillation,[3]; 5 mg/kg,increased considerably this threshold
same,value of increasing threshold compared with propranolol and oxprenolol,[3]; 5 mg/kg,higher
same,Arrhythmogenic dose of strophantin as compared with control: extrasystoles,[4]; 0.3 mg/kg i.v.,101%
same,Dose of strophantin as compared with control: ventricular fibrillation,[4]; 0.3 mg/kg i.v.,113%
same,Arrhythmogenic dose of strophantin as compared with control: extrasystoles,[4]; 1.0 mg/kg i.v.,127%
same,Dose of strophantin as compared with control: ventricular fibrillation,[4]; 1.0 mg/kg i.v.,131%
same,Lethal dose of strophantin as compared with control: animal death,[4]; 1.0 mg/kg i.v.,128%
same,Arrhythmogenic dose of strophantin as compared with control: extrasystoles,[4]; 3.0 mg/kg i.v.,136%
same,Dose of strophantin as compared with control: ventricular fibrillation,[4]; 3.0 mg/kg i.v.,137%
same,Lethal dose of strophantin as compared with control: animal death,[4]; 3.0 mg/kg i.v.,132%
same,coronary vessel dilatation / myocardial perfusion,coronary vessels,did not lead to the dilatation of coronary vessels
same,nature of vasodilating effect,vascular regions [5]; dosages to block α-adrenoceptors,slight change of vasodilating nature
same,most sensible vessels,vascular regions [5]; [10],"the vessels of skeletal muscles, testicles, spleen, kidneys and adrenals"
same,vasodilating properties,vascular regions [5]; [10],exhibits vasodilating properties
same,vasodilating properties,vascular regions [6],shows vasodilating properties
"C=CCOc1ccccc1OCC(O)CNC(C)C (stereo not shown) [Oxprenolol, oxprenolol]",ED50,β1-adrenoceptor,0.26 ± 0.025 mg/kg
same,ED50,β2-adrenoceptor,0.055 ± 0.005 mg/kg
same,effect on mesaton pressor effect,[1],did not change
same,suppression of mesaton pressor effect,[1],10%
same,threshold of electrically induced ventricular fibrillation,[3]; 1 mg/kg,did not change
same,threshold of electrically induced ventricular fibrillation,[3]; 5 mg/kg,increased considerably this threshold
same,Arrhythmogenic dose of strophantin as compared with control: extrasystoles,"[4]; guinea pig, in vivo",105% and 120% and 110%
same,Dose of strophantin as compared with control: ventricular fibrillation,"[4]; guinea pig, in vivo",101% and 110% and 121%
same,Lethal dose of strophantin as compared with control: animal death,"[4]; guinea pig, in vivo",102% and 112%
"CC(C)NCC(O)COc1cccc2[nH]ccc12 (stereo not shown) [Pindolol, pindolol, reference compound]",ED50,β1-adrenoceptor,0.025 ± 0.002 mg/kg
same,ED50,β2-adrenoceptor,0.02 ± 0.002 mg/kg
same,threshold of electrically induced ventricular fibrillation,[3]; dosages tested,no effect
same,LD50 at 72 h,in vivo,29 mg/kg
"CC(C)NCC(O)COc1cccc2ccccc12 (stereo not shown) [Propranolol, propranolol]",arterial pressure,arterial pressure [7],small influence on arterial pressure
same,heart rate,arterial pressure [7],decreased the heart rate slightly
same,antihypertensive efficacy,arterial pressure [8],low efficacy
same,threshold of electrically induced ventricular fibrillation,[3]; 5 mg/kg,increased considerably this threshold
same,Arrhythmogenic dose of strophantin as compared with control: extrasystoles,"[4]; guinea pig, in vivo",92.7% and 110%
same,Dose of strophantin as compared with control: ventricular fibrillation,"[4]; guinea pig, in vivo",97.9% and 106.3% and 120%
same,prevention of ventricular fibrillation in temporary coronary occlusion,ventricular fibrillation; 1 mg/kg i.v.,the same effect
same,Ventricular fibrillation during acute occlusion and reperfusion,ventricular fibrillation; 10 min after injection,R
same,Ventricular fibrillation during acute occlusion and reperfusion,ventricular fibrillation; 60 min after injection,R
same,coronary vessel dilatation / myocardial perfusion,coronary vessels,"unfavourable effect on transmural, myocardial perfusion"
same,"Average decrease of intraocular tension OD, M ± m",[9]; 2 hours,2.6 ± 0.3 ram of Hg column
same,"Average decrease of intraocular tension OD, M ± m",[9]; 4 hours,2.2 ± 0.2 ram of Hg column
CC(C)(C)NC[C@H](O)COc1nsnc1N1CCOCC1 [thymolol],mechanism of ocular hypotensive effect,intraocular tension,"associated not only with inhibition of intraocular liquid secretion, but with improvement of its outflow"

# From US5326774A, “Pharmaceutical preparation of antihypertensive, antianginal, antiarrhythmic and antiglaucomic action” (priority 1992, dated 1994)
